Source: US11583547B2, “Chemotherapy drug-sensitizing method, agent composition and use thereof” (FU JEN CATHOLIC UNIVERSITY, priority 2020, dated 2023)

Key:
Type in all cases: cell-based
[1] = tested on: AsPC-1 pancreatic cancer cells; assay: western blot of cell apoptosis marker (cleaved PARP) after antagomiR-1976 transfection; settings: AsPC-1, antagomiR-1976 transfection; FIG. 4B
Text: (§1) FIGS. 4A and 4B are cell apoptosis charts of BxPC-3 and AsPC-1 pancreatic cancer cells with antagomiR-1976 transfection obtained from western blot analysis applied in the chemotherapy drug-sensitizing method in accordance with the preferred embodiment of the present invention. Referring now to FIG. 4A, by way of example, results of pancreatic cancer cell BxPC-3 applied in the chemotherapy drug-sensitizing method in accordance with the present invention are shown. Referring now to FIG. 4B, by way of example, results of pancreatic cancer cell AsPC-1 applied in the chemotherapy drug-sensitizing method in accordance with the present invention are shown.

[2] = tested on: BxPC-3 pancreatic cancer cells; assay: as above; settings: BxPC-3, antagomiR-1976 transfection; FIG. 4A
Text: as §1

pancreatic cancer cells = assay: qPCR analysis of miR-1976 expression after gemcitabine induction; settings: induction by gemcitabine; FIG. 1B
Text: FIGS. 1A and 1B are microRNA expression charts released in extracellular vesicle and intracellular obtained from micro array analysis and qPCR analysis applied in the chemotherapy drug-sensitizing method in accordance with the preferred embodiment of the present invention.

Molecule	amount of pancreatic cancer cell apoptosis marker (cleaved PARP) [1]	amount of pancreatic cancer cell apoptosis marker (cleaved PARP) [2]	amount of miR-1976 in pancreatic cancer cells (pancreatic cancer cells)
5′-ACAGCAAGGAGGGCAGGAGG-3′ (listed as RNA, chemistry not given here) [antagomiR-1976]	obviously increased	obviously increased	–
Nc1ccn([C@@H]2O[C@H](CO)[C@@H](O)C2(F)F)c(=O)n1 [gemcitabine]	–	–	selectively increased
